Legend:
Bos taurus [1] = species: Bos taurus; test: Relative inhibition of NADH-ubiquinone oxidoreductase (DB) and NADH oxidase activity; assay type: functional
Bos taurus [2] = species: Bos taurus; test: Relative NADH oxidase activity compared to Laherradurin and 36-dihydroisorolliniastatin-1; assay type: functional
[3] = biological target: Mitochondrial complex I; NADH oxidoreductase (Bos taurus, UniProt P25708+P52505); test: Inhibition of NADH oxidase activity in sub-mitochondrial particles from bovine heart; assay type: functional
Mitochondrial complex I; NADH oxidoreductase, sequence (P25708 21-464 limits assumed, other chains not shown): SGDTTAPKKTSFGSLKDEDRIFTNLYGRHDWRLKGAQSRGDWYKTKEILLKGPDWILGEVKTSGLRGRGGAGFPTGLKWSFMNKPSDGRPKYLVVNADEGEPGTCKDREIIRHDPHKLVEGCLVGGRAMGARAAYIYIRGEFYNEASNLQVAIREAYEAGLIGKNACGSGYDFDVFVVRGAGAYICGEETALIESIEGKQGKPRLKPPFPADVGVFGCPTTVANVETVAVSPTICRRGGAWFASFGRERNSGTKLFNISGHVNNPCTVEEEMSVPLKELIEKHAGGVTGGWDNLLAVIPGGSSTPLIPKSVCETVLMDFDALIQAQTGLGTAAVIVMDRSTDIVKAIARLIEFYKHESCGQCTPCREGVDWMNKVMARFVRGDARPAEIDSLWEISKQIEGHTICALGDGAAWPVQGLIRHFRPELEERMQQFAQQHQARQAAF

Bos taurus [4] = species: Bos taurus; test: Inhibition of NADH-ubiquinone oxidoreductase using decylubiquinone (DB) acceptor; assay type: functional
[5] = Potency relative to NADH oxidase activity of and 36-dihydroisorolliniastatin-1
[6] = Potency relative to NADH oxidase activity of Laherradurin

Compound `CCCCCCCCCC[C@@H](O)[C@@H]1CC[C@@H]([C@@H](O)CC[C@H](O)[C@@H]2CC[C@@H](CCCCCCC[C@H]3CC(CC(C)=O)C(=O)O3)O2)O1` (stereo not given in full) has a Ratio (Bos taurus [1]) of 3.5, a Relative potency (Bos taurus [2]) of 4.6 and an IC50 [3] of 0.83 nM. The IC50 (Bos taurus [4]) was 2.88 nM.

For `CCCCCCCCCC[C@@H](O)[C@@H]1CC[C@@H]([C@@H](O)CC[C@H](O)[C@@H]2CC[C@@H](CCCCCCC[C@H]3CC(CC(C)O)C(=O)O3)O2)O1` (stereo not given in full), the Ratio (Bos taurus [1]) was 1.9, the Relative potency (Bos taurus [2]) was 13.8 and the IC50 [3] was 2.48 nM. For the same compound, the IC50 (Bos taurus [4]) was 4.64 nM.

In the case of `CCCCCCCCCC[C@@H](O)[C@@H]1CC[C@@H]([C@@H](O)CC[C@H](O)[C@@H]2CC[C@@H](CCCCCCC[C@H]3CC(C/C(C)=N/O)C(=O)O3)O2)O1` (stereo not given in full), the Ratio (Bos taurus [1]) is reported as 2.6, the Relative potency (Bos taurus [2]) is reported as 3 and the IC50 [3] is reported as 0.54 nM. The IC50 (Bos taurus [4]) was 1.42 nM.

In the case of `CCCCCCCCCC[C@H](O)[C@H]1CC[C@@H]([C@@H]2CC[C@H]([C@H](O)CCCCCCCCCC[C@@H](O)CC3(O)C(=O)O[C@@H](C)[C@H]3O)O2)O1` (single isomer, unassigned), the Ratio (Bos taurus [1]) is reported as 2.7, the Relative potency (Bos taurus [2]) is reported as 1.2 and the IC50 [3] is reported as 0.21 nM. For the same compound, the IC50 (Bos taurus [4]) was 0.56 nM.

Work on `CCCCCCCCCC[C@@H](O)[C@@H]1CC[C@@H]([C@@H](O)CC[C@H](O)[C@@H]2CC[C@@H](CCCCCCC[C@@H](O)CC3=C[C@H](C)OC3=O)O2)O1` yielded a Ratio (Bos taurus [1]) of 2.8, a Relative potency (Bos taurus [2]) of 10.2 and an IC50 [3] of 1.84 nM. It also gave an IC50 (Bos taurus [4]) of 5.18 nM.

With `CCCCCCCCCC[C@H](O)[C@H]1CC[C@@H]([C@@H]2CC[C@H]([C@H](O)CCCCCCCCCC[C@H]3CC(CC(C)=O)C(=O)O3)O2)O1` (stereo not given in full) the Ratio (Bos taurus [1]) was 3.7, the Relative potency (Bos taurus [2]) was 1.8 and the IC50 [3] was 0.33 nM. It also gave an IC50 (Bos taurus [4]) of 1.21 nM.

Compound `CCCCCCCCCC[C@H](O)[C@H]1CC[C@H]([C@H]2CC[C@H]([C@H](O)CCCCCCCCCCCCC3C(=O)O[C@@H](C)[C@@H]3O)O2)O1` (stereo not given in full) [LAHERRADURIN] has a Ratio (Bos taurus [1]) of 1.6, a Relative potency [5] of 1 and an IC50 [3] of 0.18 nM. The IC50 (Bos taurus [4]) was 0.29 nM.

`CCCCCCCCCC[C@H](O)[C@H]1CC[C@H]([C@H]2CC[C@H]([C@H](O)CCCCCCCCCCC3C(=O)O[C@@H](C)[C@@H]3O)O2)O1` (stereo not given in full) gave a Ratio (Bos taurus [1]) of 3.4, a Relative potency (Bos taurus [2]) of 1.2 and an IC50 [3] of 0.21 nM. It also gave an IC50 (Bos taurus [4]) of 0.72 nM.

For `CCCCCCCCCC[C@H](O)[C@H]1CC[C@@H]([C@@H]2CC[C@H]([C@H](O)CCCCCCCCCC[C@H]3CC(CC(C)O)C(=O)O3)O2)O1` (stereo not given in full), the Ratio (Bos taurus [1]) was 1.2, the Relative potency [6] was 1 and the IC50 [3] was 0.18 nM. For the same compound, the IC50 (Bos taurus [4]) was 0.21 nM.

Compound `CCCCCCCCCC[C@@H](O)[C@@H]1CC[C@@H]([C@@H](O)CC[C@H](O)[C@@H]2CC[C@@H](CCCCCCC[C@@H](O)CC3(O)C(=O)O[C@H](C)[C@H]3O)O2)O1` (single isomer, unassigned) has a Ratio (Bos taurus [1]) of 4.6, a Relative potency (Bos taurus [2]) of 47.1 and an IC50 [3] of 8.47 nM. The IC50 (Bos taurus [4]) was 38.3 nM.

For `CCCCCCCCCC[C@H](O)[C@H]1CC[C@@H]([C@@H]2CC[C@H]([C@H](O)CCCCCCCCCC[C@H]3CC(C/C(C)=N/O)C(=O)O3)O2)O1` (stereo not given in full), the Ratio (Bos taurus [1]) was 1, the Relative potency (Bos taurus [2]) was 1.3 and the IC50 [3] was 0.23 nM. For the same compound, the IC50 (Bos taurus [4]) was 0.22 nM.

In the case of `CCCCCCCCCC[C@@H](O)[C@@H]1CC[C@@H]([C@@H](O)CC[C@H](O)[C@@H]2CC[C@@H](CCCCCCC[C@@H](O)CC3C[C@H](C)OC3=O)O2)O1` (stereo not given in full), the Ratio (Bos taurus [1]) is reported as 2.7, the Relative potency (Bos taurus [2]) is reported as 6.8 and the IC50 [3] is reported as 1.22 nM. The IC50 (Bos taurus [4]) was 3.32 nM.

Work on `CCCCCCCCCC[C@H](O)[C@H]1CC[C@@H]([C@@H]2CC[C@H]([C@H](O)CCCCCCCCCC[C@@H](O)CC3=C[C@H](C)OC3=O)O2)O1` [rolliniastatin-1] yielded a Ratio (Bos taurus [1]) of 1.2, a Relative potency (Bos taurus [2]) of 3.3 and an IC50 (Bos taurus [4]) of 0.74 nM.

In the case of `CCCCCCCCCC[C@H](O)[C@H]1CC[C@@H]([C@@H]2CC[C@H]([C@H](O)CCCCCCCCCC[C@@H](O)CC3C[C@H](C)OC3=O)O2)O1` (stereo not given in full), the Ratio (Bos taurus [1]) is reported as 1.3, the Relative potency (Bos taurus [2]) is reported as 2.4 and the IC50 [3] is reported as 0.43 nM. The IC50 (Bos taurus [4]) was 0.57 nM.

Reference: ChEMBL document CHEMBL1134219, “Gamma-lactone-Functionalized antitumoral acetogenins are the most potent inhibitors of mitochondrial complex I” (Bioorg Med Chem Lett, 2001)
